What was measured:
in vitro = settings: human, Caco-2, pH 7.4
Summary of the method: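 Compound at 10 μM in HBSS pH 7.4 dosed A-to-B and B-to-A across Caco-2 monolayers, 90 min at 37 °C, duplicates. Monolayer integrity by TEER and lucifer yellow (5 μM, fluorescence 485/535 nm); compound quantified by LC-MS/MS.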

[1] = Fraction of drug unbound to plasma proteins; format: in vitro ADME, Mouse; settings: read-out: Fu (p) % (fraction of drug unbound to plasma proteins)
CXCR4 (U87.CXCR4 cells) = target: T1, CXCR4 (U87.CXCR4 cells) (Homo sapiens, UniProt P61073); test: Intracellular CXCL-12-induced calcium mobilization assay (FLIPR); format: cell-based; settings: CXCL-12 25-50 ng/mL, read-out: IC50 CXCL-12 Ca2+ flux U87.CXCR4+
T1 construct: expressed in transfected cells; host or cells: U87 (U87.CXCR4)
Summary of the method: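 U87.CXCR4 cells were loaded with 4 μM Fluo-2 AM for 45 min at 37 °C in HBSS/20 mM HEPES/0.2% BSA, pH 7.4. Calcium flux induced by CXCL-12 (25-50 ng/mL) was monitored kinetically by FLIPR fluorescence at 37 °C.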

[2] = Fraction of drug unbound to brain proteins; format: in vitro ADME, Mouse; settings: read-out: Fu (b) % (fraction of drug unbound to brain proteins)

T1 sequence (P61073 whole entry): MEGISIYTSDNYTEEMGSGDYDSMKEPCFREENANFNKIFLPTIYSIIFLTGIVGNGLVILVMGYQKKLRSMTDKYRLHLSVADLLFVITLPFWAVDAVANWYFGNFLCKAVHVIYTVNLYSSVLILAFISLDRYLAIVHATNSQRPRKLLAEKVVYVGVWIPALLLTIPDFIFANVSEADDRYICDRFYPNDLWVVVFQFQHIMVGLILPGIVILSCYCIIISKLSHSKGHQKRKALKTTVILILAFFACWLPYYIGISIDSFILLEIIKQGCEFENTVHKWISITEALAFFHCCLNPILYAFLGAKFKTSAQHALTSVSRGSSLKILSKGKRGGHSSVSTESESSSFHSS

SMILES	Papp A→B at 90 min, 10 μM (in vitro) [×10⁻⁶ cm/s]	Papp B→A at 90 min, 10 μM (in vitro) [×10⁻⁶ cm/s]	efflux ratio at 90 min, 10 μM (in vitro)	fraction unbound ([1]; Table 9, mouse)	IC50 (CXCR4 (U87.CXCR4 cells)) [nM]	fraction unbound ([2]; Table 9, mouse)	fraction unbound ([1]; Table 10, mouse)	fraction unbound ([2]; Table 10, mouse)
CN1CCN(c2cccc3[nH]c(CN4CCCC4c4ncccc4Cl)nc23)CC1 (stereo not drawn) [Compound I-26]	10 to 30	10 to 30	0.1 to 10	0.127	100 to 1000	0.076		
Cc1cccnc1C1CCCN1Cc1cn2c(N3CCN(C)C4(CC4)C3)cccc2n1 (stereo not drawn) [Compound I-29]	10 to 30	10 to 30	0.1 to 10		100 to 1000		0.455	0.063
Cc1cccnc1C1CCCN1Cc1nc2cccc(N3CCN(C4CC4)CC3)c2[nH]1 (stereo not drawn) [Compound I-31]	10 to 30	10 to 30	0.1 to 10		100 to 1000		0.05	0.008
CN1CCN(c2c(CN3CCCC3c3ccccn3)nc3ccccn23)CC1 (stereo not drawn) [Compound I-41]	10 to 30	10 to 30	0.1 to 10	0.239	0.01 to 100	0.069		
CN1CCN(c2c(CN3CCCC3c3ccccn3)nc3ccc(F)cn23)CC1 (stereo not drawn) [Compound I-63]	10 to 30	10 to 30	0.1 to 10	0.133	0.01 to 100	0.053		
CN1CCN(c2c(CN3CCCC3c3nccs3)nc3ccccn23)CC1 (stereo not drawn) [Compound I-70]	10 to 30	10 to 30	0.1 to 10	0.148	0.01 to 100	0.207		

Source: patent US11332470B2, “CXCR4 inhibitors and uses thereof” (X4 Pharmaceuticals, Inc., priority 2016, dated 2022)
